The record followed here is patent publication US20240165244A1 (Prelude Therapeutics Incorporated, priority 2022, published 2024).

One experiment addresses T1, SMARCA4 (Homo sapiens, UniProt P51532).
T1 construct: SMARCA4-HiBiT knock-in Hela monoclonal cell (CS3023226); host or cells: HeLa monoclonal cells with heterozygous HiBiT knock-in at the endogenous SMARCA4 locus
The experiment in a line: SMARCA4 HiBiT degradation assay in HeLa cells. It counts as cell-based. Conditions: 18 hours, highest concentration 10 μM. Summed up: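 HeLa monoclonal cells with HiBiT knocked into SMARCA4 were seeded at 2500 cells/well, dosed with compound and incubated 18 hours at 37° C. HiBiT signal reported remaining SMARCA4 protein, and values came from curve fitting.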

A further experiment deals with T2, SMARCA2 (Homo sapiens, UniProt P51531).
T2 construct: SMARCA2-HiBiT knock-in Hela monoclonal cell (CS302366); host or cells: HeLa monoclonal cells with heterozygous HiBiT knock-in at the endogenous SMARCA2 locus
T2 sequence (P51531 whole entry): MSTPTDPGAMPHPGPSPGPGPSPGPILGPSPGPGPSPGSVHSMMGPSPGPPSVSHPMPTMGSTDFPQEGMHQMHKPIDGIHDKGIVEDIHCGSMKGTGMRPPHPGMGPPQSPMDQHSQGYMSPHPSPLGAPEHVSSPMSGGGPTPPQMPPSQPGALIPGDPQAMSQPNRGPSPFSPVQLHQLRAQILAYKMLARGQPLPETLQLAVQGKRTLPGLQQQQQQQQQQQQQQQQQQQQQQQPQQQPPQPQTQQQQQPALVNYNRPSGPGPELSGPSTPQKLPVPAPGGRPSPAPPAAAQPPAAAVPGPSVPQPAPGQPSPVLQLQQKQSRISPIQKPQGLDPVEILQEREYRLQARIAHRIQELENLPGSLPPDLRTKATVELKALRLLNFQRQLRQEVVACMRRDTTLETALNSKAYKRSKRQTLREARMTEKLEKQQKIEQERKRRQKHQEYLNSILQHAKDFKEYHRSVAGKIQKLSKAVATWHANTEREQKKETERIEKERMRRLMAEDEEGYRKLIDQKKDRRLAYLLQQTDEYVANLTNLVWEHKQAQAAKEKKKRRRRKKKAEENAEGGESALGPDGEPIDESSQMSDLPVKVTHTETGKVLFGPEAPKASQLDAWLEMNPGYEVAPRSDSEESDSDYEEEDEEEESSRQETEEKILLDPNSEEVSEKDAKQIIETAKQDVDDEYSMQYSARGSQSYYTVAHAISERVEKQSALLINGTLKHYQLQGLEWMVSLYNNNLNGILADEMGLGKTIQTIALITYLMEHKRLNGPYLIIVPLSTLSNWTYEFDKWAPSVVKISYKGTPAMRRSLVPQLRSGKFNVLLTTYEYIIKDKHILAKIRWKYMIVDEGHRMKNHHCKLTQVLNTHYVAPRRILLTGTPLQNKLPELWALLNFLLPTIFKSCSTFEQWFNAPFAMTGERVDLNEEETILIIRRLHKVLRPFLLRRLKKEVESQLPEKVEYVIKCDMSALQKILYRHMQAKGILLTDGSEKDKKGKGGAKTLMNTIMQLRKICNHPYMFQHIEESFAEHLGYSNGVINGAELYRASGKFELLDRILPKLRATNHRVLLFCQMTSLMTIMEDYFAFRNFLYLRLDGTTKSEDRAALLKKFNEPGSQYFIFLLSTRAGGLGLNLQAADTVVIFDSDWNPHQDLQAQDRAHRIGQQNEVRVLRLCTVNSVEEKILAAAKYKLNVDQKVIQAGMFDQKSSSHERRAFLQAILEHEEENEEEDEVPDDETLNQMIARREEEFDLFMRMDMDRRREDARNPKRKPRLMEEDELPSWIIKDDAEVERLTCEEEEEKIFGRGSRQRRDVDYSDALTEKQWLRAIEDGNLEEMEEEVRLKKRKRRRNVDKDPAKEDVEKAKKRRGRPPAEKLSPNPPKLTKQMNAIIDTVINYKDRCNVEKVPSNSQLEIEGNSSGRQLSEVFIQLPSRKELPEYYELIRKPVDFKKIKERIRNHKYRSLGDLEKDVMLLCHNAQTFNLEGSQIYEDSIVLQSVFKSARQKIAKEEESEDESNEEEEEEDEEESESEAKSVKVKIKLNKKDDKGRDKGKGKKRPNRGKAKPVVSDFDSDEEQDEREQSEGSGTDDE
The experiment is described as follows: SMARCA2 HiBiT degradation assay in HeLa cells. It counts as cell-based. The conditions noted are these: 18 hours, highest concentration 10 μM. The method in brief:
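HeLa cells carrying a heterozygous C-terminal HiBiT knock-in on SMARCA2 were seeded at 2500 cells/well. They were treated with 3-fold dilution series, top concentration 10 μM, for 18 h at 37 °C. Remaining SMARCA2-HiBiT was measured by Nano-Glo HiBiT lytic luminescence after 30-60 min at RT, followed by curve fitting.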
For orientation: With HiBiT, luminescence reflects the tagged protein that the partner subunit can reach.

Usually DC50 stands for the concentration at which degradation of the target reaches its halfway point. A lower DC50 goes with degradation at low concentration. As a reminder, the Dmax is the greatest extent of degradation seen. A higher Dmax goes with deep degradation.

T1 sequence (P51532 whole entry): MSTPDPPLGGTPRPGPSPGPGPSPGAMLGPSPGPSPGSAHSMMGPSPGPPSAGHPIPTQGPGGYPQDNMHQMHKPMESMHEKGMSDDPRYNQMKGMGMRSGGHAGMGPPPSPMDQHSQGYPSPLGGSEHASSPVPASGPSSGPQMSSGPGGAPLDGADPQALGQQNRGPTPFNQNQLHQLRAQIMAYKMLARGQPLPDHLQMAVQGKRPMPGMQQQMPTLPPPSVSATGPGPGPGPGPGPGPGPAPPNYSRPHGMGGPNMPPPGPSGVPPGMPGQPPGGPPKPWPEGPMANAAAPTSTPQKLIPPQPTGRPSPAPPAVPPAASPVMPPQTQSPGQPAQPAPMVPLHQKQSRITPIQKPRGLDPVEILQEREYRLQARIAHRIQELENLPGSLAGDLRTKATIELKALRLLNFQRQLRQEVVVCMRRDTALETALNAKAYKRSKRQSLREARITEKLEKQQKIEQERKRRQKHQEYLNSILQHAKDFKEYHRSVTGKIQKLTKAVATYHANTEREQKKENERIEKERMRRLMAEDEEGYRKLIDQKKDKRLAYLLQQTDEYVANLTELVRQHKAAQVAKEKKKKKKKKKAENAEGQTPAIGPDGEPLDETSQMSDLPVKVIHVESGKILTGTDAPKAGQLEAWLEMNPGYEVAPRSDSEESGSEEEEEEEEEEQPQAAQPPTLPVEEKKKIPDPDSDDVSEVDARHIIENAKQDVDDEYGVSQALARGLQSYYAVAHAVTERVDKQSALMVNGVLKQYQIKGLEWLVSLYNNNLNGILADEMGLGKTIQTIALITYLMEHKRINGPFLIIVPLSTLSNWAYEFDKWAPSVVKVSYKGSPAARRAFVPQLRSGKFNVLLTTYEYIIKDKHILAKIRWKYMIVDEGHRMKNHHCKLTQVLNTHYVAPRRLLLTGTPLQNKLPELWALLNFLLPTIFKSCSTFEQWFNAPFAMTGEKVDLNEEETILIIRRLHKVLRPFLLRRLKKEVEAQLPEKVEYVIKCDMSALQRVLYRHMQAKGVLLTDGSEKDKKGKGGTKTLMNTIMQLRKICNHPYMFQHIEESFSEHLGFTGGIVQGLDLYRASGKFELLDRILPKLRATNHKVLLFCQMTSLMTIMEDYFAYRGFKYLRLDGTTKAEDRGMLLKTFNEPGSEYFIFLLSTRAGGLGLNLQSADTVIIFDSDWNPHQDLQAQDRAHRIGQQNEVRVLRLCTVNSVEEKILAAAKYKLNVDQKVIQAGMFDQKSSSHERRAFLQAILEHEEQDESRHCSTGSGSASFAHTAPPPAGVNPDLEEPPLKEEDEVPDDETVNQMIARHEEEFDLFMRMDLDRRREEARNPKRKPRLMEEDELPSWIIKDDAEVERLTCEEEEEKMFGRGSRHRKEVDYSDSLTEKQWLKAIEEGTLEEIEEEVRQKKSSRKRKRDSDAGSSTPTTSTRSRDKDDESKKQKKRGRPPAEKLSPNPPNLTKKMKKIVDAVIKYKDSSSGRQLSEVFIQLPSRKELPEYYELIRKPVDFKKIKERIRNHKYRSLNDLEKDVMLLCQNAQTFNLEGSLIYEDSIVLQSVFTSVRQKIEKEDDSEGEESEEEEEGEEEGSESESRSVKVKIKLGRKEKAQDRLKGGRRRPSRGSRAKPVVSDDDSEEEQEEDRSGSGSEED

As to `Cc1cc(O[C@H]2CN3c4cc(-c5cccc(F)c5O)nnc4NC[C@@]3(CF)C2)ncc1CN1CCN(c2ccc3c(c2)C(=O)N([C@H]2CCC(=O)NC2=O)C3)CC1` [Example 58, (S)-3-(6-(4-((6-(((6aR,8R)-2-(3-Fluoro-2-hydroxyphenyl)-6a-(fluoromethyl)-5,6,6a,7,8,9-hexahydropyrrolo[1′,2′:4,5]pyrazino[2,3-c]pyridazin-8-yl)oxy)-4-methylpyridin-3-yl)methyl)piperazin-1-yl)-1-oxoisoindolin-2-yl)piperidine-2,6-dione], on SMARCA4, the 50% degradation concentration (DC50) is more than 1000 nM and the Dmax is less than 50%. On SMARCA2, this molecule yielded a DC50 of less than 100 nM and a Dmax of more than 75%.
On the same counts, the results for `CC[C@@]12CNc3nnc(-c4cccc(F)c4O)cc3N1C[C@H](Oc1nc(C)c(CN3CCN(c4ccc5c(c4)C(=O)N([C@H]4CCC(=O)NC4=O)C5)CC3)cc1C#N)C2` [Example 59, 5-((4-(2-((S)-2,6-dioxopiperidin-3-yl)-3-oxoisoindolin-5-yl)piperazin-1-yl)methyl)-2-(((6aR,8R)-6a-ethyl-2-(3-fluoro-2-hydroxyphenyl)-5,6,6a,7,8,9-hexahydropyrrolo[1′,2′:4,5]pyrazino[2,3-c]pyridazin-8-yl)oxy)-6-methylnicotinonitrile] are less than 100 nM, 50 to 75%, less than 100 nM and more than 75%.
The corresponding values for `CC[C@@]12CNc3nnc(-c4cccc(F)c4O)cc3N1C[C@H](Sc1cc(C)c(CN3CCN(c4ccc5c(c4)C(=O)N([C@H]4CCC(=O)NC4=O)C5)CC3)cn1)C2` [Example 60, 3-(6-(4-((6-(((6aR,8R)-6a-ethyl-2-(3-fluoro-2-hydroxyphenyl)-5,6,6a,7,8,9-hexahydropyrrolo[1′,2′:4,5]pyrazino[2,3-c]pyridazin-8-yl)thio)-4-methylpyridin-3-yl)methyl)piperazin-1-yl)-1-oxoisoindolin-2-yl)piperidine-2,6-dione] are less than 100 nM, 50 to 75%, less than 100 nM and more than 75%.
The corresponding values for `CC[C@@]12CNc3nnc(-c4cccc(F)c4O)cc3N1C[C@H](Oc1ncc(CN3CCN(c4ccc5c(c4)C(=O)N(C4CCC(=O)NC4=O)C5)CC3)c(C)c1F)C2` (stereo partly drawn) [Example 61, 3-(6-(4-((6-(((6aR,8R)-6a-ethyl-2-(3-fluoro-2-hydroxyphenyl)-5,6,6a,7,8,9-hexahydropyrrolo[1′,2′:4,5]pyrazino[2,3-c]pyridazin-8-yl)oxy)-5-fluoro-4-methylpyridin-3-yl)methyl)piperazin-1-yl)-1-oxoisoindolin-2-yl)piperidine-2,6-dione] are less than 100 nM, 50 to 75%, less than 100 nM and more than 75%.
Take `CC[C@@]12CNc3nnc(-c4cccc(F)c4O)cc3N1C[C@H](Oc1cc(C)c(CN3CCN(c4ccc5c(c4)C(=O)N(C4CCC(=O)NC4=O)C5)CC3)c(C)n1)C2` (stereo partly drawn) [Example 62, 3-(6-(4-((6-(((6aR,8R)-6a-ethyl-2-(3-fluoro-2-hydroxyphenyl)-5,6,6a,7,8,9-hexahydropyrrolo[1′,2′:4,5]pyrazino[2,3-c]pyridazin-8-yl)oxy)-2,4-dimethylpyridin-3-yl)methyl)piperazin-1-yl)-1-oxoisoindolin-2-yl)piperidine-2,6-dione]: on SMARCA4, the DC50 lay in the range of 100 to 1000 nM and the Dmax was less than 50%. Further, at SMARCA2, the DC50 was less than 100 nM and the Dmax is more than 75%.
On SMARCA4, `CC[C@@]12CNc3nnc(-c4cc(F)cc(F)c4O)cc3N1C[C@H](Oc1ccc(CN3CCN(c4ccc5c(c4)C(=O)N(C4CCC(=O)NC4=O)C5)CC3)cn1)C2` (stereo partly drawn) [Example 63, 3-(6-(4-((6-(((6aR,8R)-2-(3,5-difluoro-2-hydroxyphenyl)-6a-ethyl-5,6,6a,7,8,9-hexahydropyrrolo[1′,2′:4,5]pyrazino[2,3-c]pyridazin-8-yl)oxy)pyridin-3-yl)methyl)piperazin-1-yl)-1-oxoisoindolin-2-yl)piperidine-2,6-dione] had a half-maximal degradation concentration (DC50) of less than 100 nM and a Dmax of more than 75%. On SMARCA2, this molecule returned a DC50 of less than 100 nM and a Dmax of more than 75%.
On to `Cc1nc(CN2CCN(c3ccc4c(c3)C(=O)N([C@H]3CCC(=O)NC3=O)C4)CC2)cnc1O[C@H]1CN2c3cc(-c4cccc(F)c4O)nnc3NC[C@@]2(CF)C1` [Example 64, (S)-3-(6-(4-((5-(((6aR,8R)-2-(3-fluoro-2-hydroxyphenyl)-6a-(fluoromethyl)-5,6,6a,7,8,9-hexahydropyrrolo[1′,2′:4,5]pyrazino[2,3-c]pyridazin-8-yl)oxy)-6-methylpyrazin-2-yl)methyl)piperazin-1-yl)-1-oxoisoindolin-2-yl)piperidine-2,6-dione], for which, on SMARCA4, the DC50 is 100 to 1000 nM and the Dmax was less than 50%. On SMARCA2, this molecule showed a 50% degradation concentration (DC50) of less than 100 nM and a Dmax of more than 75%.
The corresponding values for `Cc1nc(CN2CCC(c3ccc4c(c3)C(=O)N([C@H]3CCC(=O)NC3=O)C4)CC2)cnc1O[C@H]1CN2c3cc(-c4cccc(F)c4O)nnc3NC[C@@]2(CF)C1` [Example 65, (S)-3-(6-(1-((5-(((6aR,8R)-2-(3-Fluoro-2-hydroxyphenyl)-6a-(fluoromethyl)-5,6,6a,7,8,9-hexahydropyrrolo[1′,2′:4,5]pyrazino[2,3-c]pyridazin-8-yl)oxy)-6-methylpyrazin-2-yl)methyl)piperidin-4-yl)-1-oxoisoindolin-2-yl)piperidine-2,6-dione] are 100 to 1000 nM, less than 50%, less than 100 nM and more than 75%.
The corresponding values for `Cc1nc(CN2CCN(c3ccc4c(c3)C(=O)N([C@H]3CCC(=O)NC3=O)C4)CC2)cnc1O[C@H]1CN2c3cc(-c4cccc(F)c4O)nnc3NC[C@]2(CF)C1` [Example 66, (S)-3-(6-(4-((5-(((6aS,8R)-2-(3-fluoro-2-hydroxyphenyl)-6a-(fluoromethyl)-5,6,6a,7,8,9-hexahydropyrrolo[1′,2′:4,5]pyrazino[2,3-c]pyridazin-8-yl)oxy)-6-methylpyrazin-2-yl)methyl)piperazin-1-yl)-1-oxoisoindolin-2-yl)piperidine-2,6-dione] are less than 100 nM, 50 to 75%, less than 100 nM and more than 75%.
At SMARCA4, `CCc1nc(CN2CCN(c3ccc4c(c3)C(=O)N([C@H]3CCC(=O)NC3=O)C4)CC2)cnc1O[C@H]1CN2c3cc(-c4cccc(F)c4O)nnc3NC[C@@]2(CF)C1` [Example 67, (S)-3-(6-(4-((6-ethyl-5-(((6aR,8R)-2-(3-fluoro-2-hydroxyphenyl)-6a-(fluoromethyl)-5,6,6a,7,8,9-hexahydropyrrolo[1′,2′:4,5]pyrazino[2,3-c]pyridazin-8-yl)oxy)pyrazin-2-yl)methyl)piperazin-1-yl)-1-oxoisoindolin-2-yl)piperidine-2,6-dione] displayed a DC50 of more than 1000 nM and a maximal degradation (Dmax) of less than 50%. At SMARCA2, the 50% degradation concentration (DC50) was less than 100 nM and the Dmax is more than 75%.
On the same counts, the results for `CCc1nc(CN2CCC(c3ccc4c(c3)C(=O)N([C@H]3CCC(=O)NC3=O)C4)CC2)cnc1O[C@H]1CN2c3cc(-c4cccc(F)c4O)nnc3NC[C@@]2(CF)C1` [Example 68, (S)-3-(6-(1-((6-ethyl-5-(((6aR,8R)-2-(3-fluoro-2-hydroxyphenyl)-6a-(fluoromethyl)-5,6,6a,7,8,9-hexahydropyrrolo[1′,2′:4,5]pyrazino[2,3-c]pyridazin-8-yl)oxy)pyrazin-2-yl)methyl)piperidin-4-yl)-1-oxoisoindolin-2-yl)piperidine-2,6-dione] are more than 1000 nM, less than 50%, less than 100 nM and more than 75%.
On the same counts, the results for `Cc1nc(O[C@H]2CN3c4cc(-c5cccc(F)c5O)nnc4NC[C@]3(CF)C2)c(F)cc1CN1CCN(c2ccc3c(c2)C(=O)N([C@H]2CCC(=O)NC2=O)C3)CC1` [Example 69, (S)-3-(6-(4-((5-fluoro-6-(((6aS,8R)-2-(3-fluoro-2-hydroxyphenyl)-6a-(fluoromethyl)-5,6,6a,7,8,9-hexahydropyrrolo[1′,2′:4,5]pyrazino[2,3-c]pyridazin-8-yl)oxy)-2-methylpyridin-3-yl)methyl)piperazin-1-yl)-1-oxoisoindolin-2-yl)piperidine-2,6-dione] are less than 100 nM, more than 75%, less than 100 nM and more than 75%.
At SMARCA4, `O=C1CCC(N2Cc3ccc(N4CCN(Cc5cnc(O[C@H]6CN7c8cc(-c9cccc(F)c9O)nnc8NC[C@@]7(CF)C6)c(F)c5)CC4)cc3C2=O)C(=O)N1` (stereo partly drawn) [Example 70, 3-(6-(4-((5-fluoro-6-(((6aR,8R)-2-(3-fluoro-2-hydroxyphenyl)-6a-(fluoromethyl)-5,6,6a,7,8,9-hexahydropyrrolo[1′,2′:4,5]pyrazino[2,3-c]pyridazin-8-yl)oxy)pyridin-3-yl)methyl)piperazin-1-yl)-1-oxoisoindolin-2-yl)piperidine-2,6-dione] had a 50% degradation concentration (DC50) of less than 100 nM and a Dmax of 50 to 75%. Besides, at SMARCA2, the 50% degradation concentration (DC50) was less than 100 nM and the Dmax was more than 75%.
